The assay has as its system human cervix cancer cells Hela. As to the kind of experiment: Plk Cell Proliferation Inhibition Assay (CCK8, 72 hours). As to conditions: Hela cells highly expressing Plk. It is filed as cell-based. The text has this: The following in vitro assay is to determine the activity of the compounds of the present invention for inhibiting the proliferation of human cervix cancer cells Hela, which has high expression of Plk.
The in vitro cellular assay described here is to determine the activity of the tested compounds for inhibiting the proliferation of cancer cells, which has high expression of Plk. The activity is represented by the […]. The general procedures for the assay are given as follows: The Hela cells highly expressing Plk (Institute of biochemistry and cell biology) were seeded to 96-well cell culture plate at a suitable concentration (exp 3000 cells/ml medium). The cells then were cultured in carbon dioxide (CO2) incubator and grew overnight. Then, the cell culture medium was replaced by fresh one with tested compounds added in it at serial concentrations (general 7 to 9 concentrations). Then the cells were put back to the incubator and cultured for continuous 72 hours. 72 hours later, the activity of the tested compounds for inhibiting the cell proliferation was determined by using CCK8 (cell counting kit-8, Dojindo, NO:CK04) method. IC50 value on tested cells were calculated by the data of inhibition rates of serial concentrations of the tested compounds.
`CC[C@@H]1C(=O)N(C)c2cnc(Nc3ccc(C(=O)NC4CCN(C)CC4)c4c3OC(COC)C4)nc2N1C1CCCC1` (stereo partly drawn) [Example 40, 7-[[(7R)-8-Cyclopentyl-7-ethyl-5-methyl-6-oxo-7H-pteridin-2-yl]amino]-2-(methoxymethyl)-N-(1-methyl-4-piperidyl)-2,3-dihydrobenzofuran-4-carboxamide]: half-maximal inhibition (IC50) required 2 nM. Compound `CC[C@@H]1C(=O)N(C)c2cnc(Nc3ccc(C(=O)N[C@@H]4C[C@@H](OC(C)=O)[C@H](N(C)C)C[C@H]4OC(C)=O)c4c3OCC4)nc2N1C1CCCC1` [Example 3, [(1R,2R,4R,5R)-4-Acetoxy-2-[[7-[[(7R)-8-cyclopentyl-7-ethyl-5-methyl-6-oxo-7H-pteridin-2-yl]amino]-2,3-dihydrobenzofuran-4-carbonyl]amino]-5-dimethylamino-cyclohexyl]acetate] yielded an IC50 of 7 nM. `CC[C@@H]1C(=O)N(C)c2cnc(Nc3ccc(C(=O)N[C@H]4C[C@@H]5CN(C)C[C@@H]5C4)c4c3OCC4)nc2N1C(C)C` [Example 24, (cis-endo)-N-[2-Methyl-3,3a,4,5,6,6a-hexahydro-1H-cyclopenta[c]pyrrol-5-yl]-7-[[(7R)-7-ethyl-8-isopropyl-5-methyl-6-oxo-7H-pteridin-2-yl]amino]-2,3-dihydrobenzofuran-4-carboxamide] gave a concentration for half-maximal inhibition (IC50) of 2 nM. This IC50 lies about 3.5-fold lower than the previous one.

In turn, `CC[C@@H]1C(=O)N(C)c2cnc(Nc3ccc(C(=O)NC4CCN(C)CC4)c4c3OCC4)nc2N1C(C)C` [Example 22, 7-[[(7R)-7-Ethyl-8-isopropyl-5-methyl-6-oxo-7H-pteridin-2-yl]amino]-N-(1-methyl-4-piperidyl)-2,3-dihydrobenzofuran-4-carboxamide] displayed an IC50 of 2 nM.

With `CC[C@@H]1C(=O)N(C)c2cnc(Nc3ccc(C(=O)N[C@H]4CC[C@H](N5CCN(C)CC5)CC4)c4c3OCC4)nc2N1C1CCCC1` [Example 19, 7-[[(7R)-8-Cyclopentyl-7-ethyl-5-methyl-6-oxo-7H-pteridin-2-yl]amino]-N-[(trans)-4-(4-methylpiperazin-1-yl)cyclohexyl]-2,3-dihydrobenzofuran-4-carboxamide], half-maximal inhibition (IC50) was put at 3 nM. As for `CC[C@@H]1C(=O)N(C)c2cnc(Nc3ccc(C(=O)NC4CCN(C)CC4)c4c3OC(C)C4)nc2N1C1CCCC1` (stereo partly drawn) [Example 30, 7-[[(7R)-8-Cyclopentyl-7-ethyl-5-methyl-6-oxo-7H-pteridin-2-yl]amino]-2-methyl-N-(1-methyl-4-piperidyl)-2,3-dihydrobenzofuran-4-carboxamide], the figure is 4 nM; as for `CC[C@@H]1C(=O)N(C)c2cnc(Nc3ccc(C(=O)NC4CCN(C)CC4)c4c3OC(CN(C)C)C4)nc2N1C1CCCC1` (stereo partly drawn) [Example 29, 7-[[(7R)-8-Cyclopentyl-7-ethyl-5-methyl-6-oxo-7H-pteridin-2-yl]amino]-2-(dimethylaminomethyl)-N-(1-methyl-4-piperidyl)-2,3-dihydrobenzofuran-4-carboxamide], 30 nM. With `CC[C@@H]1C(=O)N(C)c2cnc(Nc3ccc(C(=O)N[C@H]4CC[C@H](N5CCN(CC6CC6)CC5)CC4)c4c3OCC4)nc2N1C1CCCC1` [Example 34, 7-[[(7R)-8-Cyclopentyl-7-ethyl-5-methyl-6-oxo-7H-pteridin-2-yl]amino]-N-[(trans)-4-[4-(cyclopropylmethyl)piperazin-1-yl]cyclohexyl]-2,3-dihydrobenzofuran-4-carboxamide], it took 0.7 nM to reach half-maximal inhibition (IC50). On to `CC[C@@H]1C(=O)N(C)c2cnc(Nc3ccc(C(=O)NC[C@@H](CN4CCN(C)CC4)OC)c4c3OCC4)nc2N1C1CCCC1` [Example 38, 7-[[(7R)-8-Cyclopentyl-7-ethyl-5-methyl-6-oxo-7H-pteridin-2-yl]amino]-N-[(2S)-2-methoxy-3-(4-methylpiperazin-1-yl)propyl]-2,3-dihydrobenzofuran-4-carboxamide], for which the IC50 was determined as 2 nM.

For orientation: IC50 means the concentration needed to halve the response being measured. High values mean weaker potency in that assay, low ones greater potency in that assay.

The values above are taken from patent publication US8691822B2, “Dihydropteridinone derivatives, preparation process and pharmaceutical use thereof” (Jiangsu Hengrui Medicine Co., Ltd., priority 2009, dated 2014).
